± gives the expanded uncertainty stated by the source.
Assay: mn = molality of the nth substance listed, in mol/kg
Conditions: Fluid (supercritical or subcritical phases), Vibrating tube method, m1 = 0.2322

S=C=S [carbon disulfide] + O=C=O
Conditions	mass density [kg/m3]
324.09 K, 5020 kPa	107.03 ± 0.2
324.09 K, 5037.7 kPa	107.14 ± 0.2
324.09 K, 7541 kPa	199.79 ± 0.58
324.09 K, 7551.5 kPa	199.54 ± 0.58
324.09 K, 10053 kPa	403.53 ± 1.2
324.09 K, 10060 kPa	402.21 ± 1.2
324.09 K, 12570 kPa	624.02 ± 1.3
324.09 K, 12604 kPa	625.07 ± 1.3
324.09 K, 15125 kPa	707.48 ± 1.1
324.09 K, 15142 kPa	707.56 ± 1.1
324.09 K, 17653 kPa	755.16 ± 0.93
324.09 K, 17669 kPa	755.21 ± 0.93
324.09 K, 20182 kPa	789.28 ± 0.82
324.09 K, 20197 kPa	789.34 ± 0.82
324.09 K, 22699 kPa	815.92 ± 0.75
324.09 K, 22712 kPa	815.94 ± 0.75
324.09 K, 25212 kPa	837.95 ± 0.71
324.09 K, 25226 kPa	837.97 ± 0.71
324.09 K, 27728 kPa	856.85 ± 0.68
324.09 K, 27741 kPa	856.86 ± 0.68
324.09 K, 30237 kPa	873.42 ± 0.67
324.09 K, 30252 kPa	873.43 ± 0.67
324.09 K, 32734 kPa	888.17 ± 0.66
324.09 K, 32750 kPa	888.17 ± 0.66
324.09 K, 35219 kPa	901.47 ± 0.67
324.09 K, 35227 kPa	901.44 ± 0.67
349.43 K, 5049.6 kPa	92.26 ± 0.16
349.43 K, 5059.9 kPa	92.17 ± 0.16
349.43 K, 7561.3 kPa	154.46 ± 0.3
349.43 K, 7565.2 kPa	155.4 ± 0.3
349.43 K, 10072 kPa	237.91 ± 0.66
349.43 K, 10079 kPa	236.77 ± 0.66
349.43 K, 12659 kPa	351.82 ± 1.1
349.43 K, 12682 kPa	350.77 ± 1.1
349.43 K, 15194 kPa	474.54 ± 1.3
349.43 K, 15210 kPa	471.73 ± 1.3
349.43 K, 17724 kPa	568.76 ± 1.3
349.43 K, 17738 kPa	565.77 ± 1.3
349.43 K, 20245 kPa	633.49 ± 1.1
349.43 K, 20260 kPa	630.9 ± 1.2
349.43 K, 22769 kPa	680.4 ± 1.1
349.43 K, 22783 kPa	678.14 ± 1.1
349.43 K, 25280 kPa	716.41 ± 1
349.43 K, 25300 kPa	714.54 ± 1
349.43 K, 27790 kPa	745.77 ± 0.96
349.43 K, 27805 kPa	744.03 ± 0.96
349.43 K, 30301 kPa	770.42 ± 0.93
349.43 K, 30313 kPa	768.82 ± 0.93
349.43 K, 32807 kPa	791.68 ± 0.9
